Source: patent publication US10047105B2, “Gyrase inhibitors” (Merck Sharp & Dohme Corp., priority 2009, dated 2018)
Values after ≈ are worked out from the molar mass of the structure shown.

What was measured:
Format in all cases: cell-based
E. coli 8 ATCC 25922 = test: MIC, E. coli 8 (wt); settings: E. coli 8 (EC8)
S. aureus ATCC 13709 = test: MIC, antibacterial potency, S. aureus; settings: S. aureus (SA); in µg/mL
S. pneumoniae ATCC 51916 = test: MIC, S. pneumoniae; settings: S. pneumoniae (Spn52); in µg/mL

MIC EC8 (E. coli 8 ATCC 25922) | MIC, SA (S. aureus ATCC 13709) | MIC Spn52 (S. pneumoniae ATCC 51916) | SMILES
– | >64 | >64 | CCc1[nH]c2nc(Oc3cccc(C#N)c3)nc(/C=C\c3cccc(OC)c3)c2c1Cl [700,892]
– | 4 | 8 | CCc1[nH]c2nc(Oc3cccc(C#N)c3)nc(C(C)=O)c2c1Cl [700,893]
– | 32 | 8 | CCc1[nH]c2nc(Sc3cnc4c(NCC5OCCO5)nc(C)nc4c3)nc(N3CC[C@@H](N)C3)c2c1Cl [700,894]
– | <=0.5 | <=0.5 | CCc1[nH]c2nc(Oc3cncc(C#N)c3)nc(Oc3cncnc3)c2c1Br [700,899]
– | 8 | 8 | CCc1[nH]c2nc(Sc3cnc4nccnc4c3)nc(N3CCC4(CCNCC4)C3)c2c1Cl [700,900]
– | 8 | 4 | CCc1[nH]c2nc(Sc3ccc4nccnc4c3)nc(N3CCC4(CCNCC4)C3)c2c1Cl [700,901]
– | 32 | 64 | CCc1[nH]c2nc(Sc3ccc4c(N5CC[C@@H](N)C5)ncnc4c3)nc(N3CC[C@@H](N)C3)c2c1Cl [700,903]
– | 32 | >64 | CCc1[nH]c2nc(Sc3ccc4c(N5CC(CN)C5)ncnc4c3)nc(N3CC[C@@H](N)C3)c2c1Cl [700,904]
> 64 µg/mL | 2 | 4 | CCc1[nH]c2nc(Sc3cnc4c(=N)n(CC5OCCO5)c(C)nc4c3)nc(N3CC[C@@H](N)C3)c2c1Cl [700,906]
64 µg/mL (≈ 185 µM) | 8 | 16 | CCc1[nH]c2nc(Oc3cncnc3)nc(N3CC(N)C3)c2c1Cl [700,907]
> 64 µg/mL | 8 | 16 | CCc1[nH]c2nc(Oc3cncnc3)nc(N3CCCC3CO)c2c1Cl (stereo not drawn) [700,908]
> 64 µg/mL | 1 | 4 | CCc1[nH]c2nc(Oc3cncnc3)nc(N3CC(Cc4cncnc4)C3)c2c1Cl [700,909]
> 64 µg/mL | >64 | >64 | CCc1[nH]c2nc(Oc3cncnc3)nc(N3CCC(N)C3)c2c1Cl (stereo not drawn) [700,910]
> 32 µg/mL | 1 | 2 | CCc1[nH]c2nc(Oc3cncnc3)nc(N3CC4C(N)C4C3)c2c1Cl (stereo not drawn) [700,911]
32 µg/mL (≈ 55.7 µM) | 8 | >64 | CCc1[nH]c2nc(Sc3ccc4c(Oc5cccc(CNC)c5)cc(C)nc4c3)nc(N3CC[C@@H](N)C3)c2c1Cl [700,912]
> 64 µg/mL | 2 | 2 | CCc1[nH]c2nc(Sc3ccc4c(-n5ccnc5)cc(C)nc4c3)nc(N3CC[C@@H](N)C3)c2c1Cl [700,913]
32 µg/mL (≈ 61.1 µM) | 64 | >64 | CCc1[nH]c2nc(Sc3ccc4nc(C)nc(N5CC(CN)C5)c4c3)nc(N3CC[C@@H](N)C3)c2c1Cl [700,914]
> 64 µg/mL | 64 | >64 | CCc1[nH]c2nc(Sc3ccc4nc(C)nc(N5CC6CNC6C5)c4c3)nc(N3CC[C@@H](N)C3)c2c1Cl (stereo partly drawn) [700,916]
8 µg/mL (≈ 13.9 µM) | 4 | 4 | CCc1[nH]c2nc(Sc3ccc4c(N5CC(CN)C5)cc(C(F)(F)F)nc4c3)nc(N3CC[C@@H](N)C3)c2c1Cl [700,917]
> 64 µg/mL | 2 | 8 | CCc1[nH]c2nc(Sc3ccc4[nH]c(C(F)(F)F)cc(=O)c4c3)nc(N3CC[C@@H](N)C3)c2c1Cl [700,918]
> 64 µg/mL | >64 | >64 | CCc1[nH]c2nc(Sc3ccc4[nH]cc(C#N)c(=O)c4c3)nc(N3CC[C@@H](N)C3)c2c1Cl [700,919]
> 64 µg/mL | >64 | >64 | CCc1[nH]c2nc(Sc3ccc4[nH]cc(C(=O)O)c(=O)c4c3)nc(N3CC[C@@H](N)C3)c2c1Cl [700,920]
> 64 µg/mL | 2 | 4 | CCc1[nH]c2nc(Sc3cnc4cccnc4c3)nc(N3CCC(NCCN)C3)c2c1Cl (stereo not drawn) [700,921]
4 µg/mL (≈ 7.63 µM) | 32 | 64 | CCc1[nH]c2nc(Sc3ccc4c(N5CC(CN)C5)nc(C)nc4c3)nc(N3CC[C@@H](N)C3)c2c1Cl [700,922]
64 µg/mL (≈ 118 µM) | 16 | 8 | CCc1[nH]c2nc(Sc3cnc4c(=N)n(CCCN(C)C)c(C)nc4c3)nc(N3CC[C@@H](N)C3)c2c1Cl [700,923]
64 µg/mL (≈ 121 µM) | 16 | 4 | CCc1[nH]c2nc(Sc3cnc4c(=N)n(CCN(C)C)c(C)nc4c3)nc(N3CC[C@@H](N)C3)c2c1Cl [700,924]
> 64 µg/mL | 4 | 32 | CCOC(=O)/C=C/c1ccc(Sc2nc(N3CC[C@@H](N)C3)c3c(Cl)c(CC)[nH]c3n2)cc1F [700,925]

MIC EC8 (E. coli 8 ATCC 25922) | MIC, SA (S. aureus ATCC 13709) | MIC Spn52 (S. pneumoniae ATCC 51916) | SMILES
> 64 µg/mL | <=0.5 | 1 | CCc1[nH]c2nc(Oc3cncc(C#N)c3)nc(Cc3cccc(C#N)c3)c2c1Cl [700,927]
16 µg/mL (≈ 29.8 µM) | 2 | 8 | CCc1[nH]c2nc(Sc3ccc4c(c3)c(=O)c(C#N)cn4CCN(C)C)nc(N3CC[C@@H](N)C3)c2c1Cl [700,928]
32 µg/mL (≈ 58.1 µM) | 16 | 64 | CCc1[nH]c2nc(Sc3ccc4c(c3)c(=O)c(C#N)cn4CCCN(C)C)nc(N3CC[C@@H](N)C3)c2c1Cl [700,929]
> 64 µg/mL | 8 | 16 | CCc1[nH]c2nc(Oc3cccc(C#N)c3)nc(C(C)O)c2c1Cl (stereo not drawn) [700,930]
> 64 µg/mL | >64 | >64 | CCc1[nH]c2nc(Oc3cncc(C(=O)O)c3)nc(Oc3cncnc3)c2c1Cl [700,932]
> 64 µg/mL | 2 | 4 | CCc1[nH]c2nc(Oc3cncc(C#N)c3)nc(Oc3cc(C#N)cc(OC)c3)c2c1Br [700,933]
> 64 µg/mL | 4 | 16 | CCc1[nH]c2nc(Oc3cncc(OC)c3)nc(N3CC(O)C3)c2c1Cl [700,934]
> 64 µg/mL | 2 | 32 | CCc1[nH]c2nc(Oc3cnc4ccoc4c3)nc(N3CC(N)C3)c2c1Br [700,935]
> 64 µg/mL | 64 | 32 | CCc1[nH]c2nc(Oc3cnc4ccoc4c3)nc(N3CC4CNC4C3)c2c1Cl (stereo not drawn) [700,936]
> 64 µg/mL | <=0.5 | 1 | CCc1[nH]c2nc(Oc3cncc(OC)c3)nc(Oc3cncc(OC)c3)c2c1Br [700,937]
> 64 µg/mL | <=0.5 | <=0.5 | CCc1[nH]c2nc(Oc3ccc4nccnc4c3)nc(Oc3ccc4nccnc4c3)c2c1Br [700,938]
> 64 µg/mL | <=0.5 | 1 | CCc1[nH]c2nc(Oc3cnc4c(c3)ncn4C)nc(Oc3cnc4c(c3)ncn4C)c2c1Br [700,939]
8 µg/mL (≈ 16.1 µM) | 2 | 8 | CCc1[nH]c2nc(Sc3ccc4cc5c([n+]([O-])c4c3)CCNC5)nc(N3CC[C@@H](N)C3)c2c1Cl [700,940]
> 64 µg/mL | 4 | 8 | CCc1[nH]c2nc(Oc3cncnc3)nc(N3CC4CNC4C3)c2c1Cl (stereo not drawn) [700,941]
8 µg/mL (≈ 16.1 µM) | 16 | 16 | CCc1[nH]c2nc(Sc3ccc4c(N5CC(N)C5)ncnc4c3)nc(N3CC[C@@H](N)C3)c2c1Cl [700,942]
64 µg/mL (≈ 110 µM) | 32 | 32 | CCc1[nH]c2nc(Sc3cnc4c(=N)n(CCCN5CCC(N)C5)c(C)nc4c3)nc(N3CC[C@@H](N)C3)c2c1Cl (stereo partly drawn) [700,943]
> 64 µg/mL | 8 | 8 | CCc1[nH]c2nc(Oc3ccc4c(N5CC(N)C5)ncnc4c3)nc(Oc3cccc(C#N)c3)c2c1Br [700,944]
> 64 µg/mL | <=0.5 | <=0.5 | CCc1[nH]c2nc(Oc3cncc(C#N)c3)nc(Oc3cncc(OC)c3)c2c1Br [700,945]
> 64 µg/mL | >64 | >64 | CCc1[nH]c2nc(Oc3cccc(C#N)c3)nc(C(C)N)c2c1Cl (stereo not drawn) [700,946]
> 64 µg/mL | >64 | 64 | CC(=O)c1nc(Oc2cccc(C#N)c2)nc2[nH]c(C(C)O)c(Cl)c12 (stereo not drawn) [700,947]
> 16 µg/mL | <=0.5 | 4 | CCc1[nH]c2nc(Oc3ccc4nccnc4c3)nc(N3CC(O)C3)c2c1Cl [700,948]
> 64 µg/mL | <=0.5 | 4 | CCc1[nH]c2nc(Oc3ccc4sc(C)nc4c3)nc(Oc3cccc(C#N)c3)c2c1Br [700,949]
> 64 µg/mL | >64 | >64 | CCc1[nH]c2nc(Oc3cccc(C#N)c3)nc(C(C)N3CCC(N)C3)c2c1Cl (stereo not drawn) [700,950]
> 16 µg/mL | >16 | >16 | CCc1[nH]c2nc(Oc3cccc(C#N)c3)nc(C(C)N3CC4C(N)C4C3)c2c1Cl (stereo not drawn) [700,951]
> 64 µg/mL | 64 | 64 | CCc1[nH]c2nc(Oc3cccc(C#N)c3)nc(C(C)N3CC4C(C3)C4(N)C(N)=O)c2c1Cl (stereo not drawn) [700,952]
> 32 µg/mL | >32 | >32 | CCc1[nH]c2nc(Oc3cccc(C#N)c3)nc(C(C)NCCO)c2c1Cl (stereo not drawn) [700,953]

SMILES | MIC EC8 (E. coli 8 ATCC 25922) | MIC, SA (S. aureus ATCC 13709) | MIC Spn52 (S. pneumoniae ATCC 51916)
CCc1[nH]c2nc(Sc3cnc4cccnc4c3)nc(N3CC[C@@H](N)C3)c2c1Cl.O=C(O)C(F)(F)F.O=C(O)C(F)(F)F [700,795] | 8 µg/mL | <=0.5 | <=0.5
CCc1[nH]c2nc(Oc3cncnc3)nc(Oc3cncc(C#N)c3)c2c1Cl [700,898] | – | <=0.5 | 2
